Measurements from patent US6428972B2, “Biochemical method to measure niacin status in a biological sample” (Niadyne, Inc., priority 1998, dated 2002).
Where “and” joins values, the source holds several entries; their conditions need not be identical. Equal entries are not always repeated.

System: NAD and NADP in whole blood
Conditions: hypercholesterolemia subjects, 750 mg of niacin twice daily for two months
Description: The term niacin number has been chosen as a convenient way to represent niacin status and is defined as the ratio of the concentration of NAD to the concentration of NADP multiplied by 100 (100·[NAD]/[NADP]) in whole blood. For example, if the relative concentration of NADP([NADP]) is 1 and the relative concentration of NAD([NAD]) is 0.72, the niacin number would be 72 (from the formula 100·[NAD]/[NADP]=72 wherein [NAD] is 0.72 and [NADP] is 1). Expressing the values in this way yields a whole number that is linearly related to intracellular NAD content of red blood cells.

Question: With `O=C(O)c1cccnc1` [niacin, pyridine 3-carboxylic acid] as the compound, how does the Mean niacin number (pretherapy mean 175) read?
Answer: The Mean niacin number was 665 and 665 ± 115.

Question: And the “Range observed (niacin number)” value (pretherapy range 131-242)?
Answer: Its value is 517-746.
